From ChEMBL document CHEMBL6087456 (J Med Chem, 2025)
pEC50, pIC50: −log10 of the molar value. In brackets after ≈: the same amount, converted by molar mass.

Legend:
[1] = Kinetic solubility of compound at pH 6.5 measured after 30 mins by nephelometry; type: physicochemical; conditions: buffer; for solubility kinetic at 0.5 h: pH 6.5, read-out: Kinetic_solubility; for Kinetic_solubility: pH 6.5, 0.5 h
[2] = Metabolic stability in human liver microsomes assessed as intrinsic clearance at 0.5 uM incubated for 60 mins in presence of NADPH by tandem quadrupole-Time of Flight MS; type: ADME, Microsome; conditions: 1 h
[3] = tested on: Plasmodium falciparum; experiment: Antiparasitic activity against asexual blood stage Plasmodium falciparum 3D7 incubated for 72 hrs by SYBR Green assay; type: functional, organism-based; conditions: 3D7, 72 h
[4] = target: Dihydroorotate dehydrogenase (quinone), mitochondrial (Homo sapiens, UniProt Q02127); experiment: Inhibition of C-terminal His6-tagged recombinant human DHODH (29 to 395 residues) N-terminally truncated soluble domain extracted from Escherichia coli phage resistant BL21-DE3 using CoQD/DHA/DCIP as substrates
[5] = target: T1, Dihydroorotate dehydrogenase (quinone), mitochondrial (Plasmodium falciparum (isolate 3D7), UniProt Q08210); experiment: Inhibition of N-terminal His6-tagged recombinant Plasmodium falciparum DHODH (158 to 569 residues) N-terminally truncated soluble domain extracted from Escherichia coli phage resistant BL21-DE3 using CoQD/DHA/DCIP as substrates
T1 sequence (Q08210 whole entry): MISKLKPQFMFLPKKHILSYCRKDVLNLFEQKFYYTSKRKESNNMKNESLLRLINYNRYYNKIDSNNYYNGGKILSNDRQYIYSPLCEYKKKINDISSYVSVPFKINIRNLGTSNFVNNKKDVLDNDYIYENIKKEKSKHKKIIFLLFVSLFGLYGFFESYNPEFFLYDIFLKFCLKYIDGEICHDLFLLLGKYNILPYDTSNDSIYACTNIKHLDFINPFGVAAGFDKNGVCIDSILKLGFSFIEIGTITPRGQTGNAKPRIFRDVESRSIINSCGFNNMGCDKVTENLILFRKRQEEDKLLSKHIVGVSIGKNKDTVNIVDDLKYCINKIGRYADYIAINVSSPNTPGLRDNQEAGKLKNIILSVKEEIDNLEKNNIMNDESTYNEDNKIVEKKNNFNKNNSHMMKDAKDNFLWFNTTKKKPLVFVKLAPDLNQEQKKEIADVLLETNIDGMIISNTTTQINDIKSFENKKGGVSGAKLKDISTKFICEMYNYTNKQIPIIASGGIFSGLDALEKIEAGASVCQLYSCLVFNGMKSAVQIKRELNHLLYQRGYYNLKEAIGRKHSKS

Sequence of Dihydroorotate dehydrogenase (quinone), mitochondrial (Homo sapiens, UniProt Q02127) (Q02127 whole entry, the tested form may be a part): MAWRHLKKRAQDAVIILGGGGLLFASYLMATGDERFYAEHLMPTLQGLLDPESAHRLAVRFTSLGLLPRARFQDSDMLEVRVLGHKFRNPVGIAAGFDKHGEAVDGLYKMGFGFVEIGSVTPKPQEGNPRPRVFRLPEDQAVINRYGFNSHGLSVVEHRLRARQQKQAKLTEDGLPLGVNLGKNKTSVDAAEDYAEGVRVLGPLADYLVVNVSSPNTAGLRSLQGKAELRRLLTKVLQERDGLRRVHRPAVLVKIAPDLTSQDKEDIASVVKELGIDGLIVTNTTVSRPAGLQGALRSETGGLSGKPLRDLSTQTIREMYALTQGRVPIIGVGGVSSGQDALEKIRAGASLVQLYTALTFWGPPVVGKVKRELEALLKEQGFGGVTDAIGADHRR

SMILES	solubility kinetic at 0.5 h [1] [µM]	intrinsic clearance (CLint) [2] [µL/min/mg]	pEC50 [3]	pIC50 [4]	Kinetic_solubility [1] [µM]	pIC50 [5]
Cn1nc2c(=O)n(C3CC3)cnc2c1[C@](O)(c1ccc(C(F)(F)F)c(C#N)c1)C(F)(F)F	40 (≈ 18.3 µg/mL)	< 3		4.74		7.85
Cn1nc2c(=O)n(C)ccc2c1Cc1ccc(C(F)(F)F)nc1			5.22			5.35
Cn1nc2c(=O)n(C3CC3)ncc2c1[C@](O)(c1ccc(C(F)(F)F)c(Cl)c1)C1CC1		< 3	8.70	< 4.52	< 5	
CCn1cc(C2CC2)c2c([C@H](N)c3ccc(C(F)(F)F)nc3)n(C)nc2c1=O		3.8	7.57	< 4.00	> 320	6.74
CC[C@](O)(c1cnc(C(F)(F)F)c(Cl)c1)c1c2ccn(C3CC3)c(=O)c2nn1C			6.36			4.85
Cn1nc2c(=O)n(C3CC3)ncc2c1[C@](O)(c1ccc(C(F)(F)F)c(Cl)c1)C(F)(F)F	5 (≈ 2.33 µg/mL)	< 3		4.66		8.05
CC[C@@](O)(c1cc(F)c(Cl)c(F)c1)c1c2ccn(C3CC3)c(=O)c2nn1C	50 (≈ 19.7 µg/mL)	3.2	9.00			
CCn1cc(C)c2c([C@@H](N)c3ccc(C(F)(F)F)nc3)n(C)nc2c1=O			5.59			5.96
Cn1nc2c(=O)n(C3CC3)ccc2c1[C@](O)(c1ccc(C(F)(F)F)c(Cl)c1)C(F)(F)F	5 (≈ 2.33 µg/mL)	< 3		5.37		
Cn1nc2c(=O)n(CCC3CC3)ccc2c1Cc1ccc(C(F)(F)F)nc1			4.85			< 4.00
Cn1nc2c(=O)n(C3CC3)ncc2c1[C@@](O)(c1cnc(C(F)(F)F)c(Cl)c1)C(F)(F)F			6.15			
CCn1cc(C)c2c([C@@H](O)c3ccc(C(F)(F)F)nc3)n(C)nc2c1=O			6.66			6.55
Cn1nc2c(=O)n(C3CC3)ccc2c1[C@](O)(c1ccc(C(F)(F)F)nc1)C(F)(F)F	50 (≈ 21.6 µg/mL)	< 3	8.70	< 4.52		
Cn1nc2c(=O)n(C3CC3)ncc2c1[C@](O)(c1cnc(C(F)(F)F)c(Cl)c1)C1CC1	20 (≈ 8.8 µg/mL)	5.4	7.82	< 4.52		
CC[C@@](N)(c1ccc(C(F)(F)F)c(Cl)c1)c1c2ncn(C3CC3)c(=O)c2nn1C		< 3	9.00		> 100	8.05
CC[C@@](N)(c1ccc(C(F)(F)F)c(Cl)c1)c1c2cnn(C3CC3)c(=O)c2nn1C	20 (≈ 8.52 µg/mL)	< 3	8.52			

SMILES	solubility kinetic at 0.5 h [1] [µM]	intrinsic clearance (CLint) [2] [µL/min/mg]	pEC50 [3]	pIC50 [4]	Kinetic_solubility [1] [µM]	pIC50 [5]
CC[C@](N)(c1cnc(C(F)(F)F)c(Cl)c1)c1c2ccn(C3CC3)c(=O)c2nn1C			5.64			4.77
CC[C@](N)(c1cnc(C(F)(F)F)c(Cl)c1)c1c2ncn(C3CC3)c(=O)c2nn1C			6.01			5.38
CC[C@](O)(c1cnc(C(F)(F)F)c(Cl)c1)c1c2cnn(C3CC3)c(=O)c2nn1C			5.77			
CC[C@@](O)(c1ccc(C(F)(F)F)c(Cl)c1)c1c2cnn(C3CC3)c(=O)c2nn1C	6.25 (≈ 2.67 µg/mL)	< 3				8.22
CCn1ccc2c([C@@](O)(CC)c3cnc(C(F)(F)F)c(Cl)c3)n(C)nc2c1=O	40 (≈ 16.6 µg/mL)	9.3				7.57
CCn1cc(Cl)c2c(Cc3ccc(N4CCN(C)CC4)nc3)n(C)nc2c1=O			5.57			5.82
Cc1cc(Nc2ccc(S(F)(F)(F)(F)F)cc2)n2nc(C(C)(F)F)nc2n1 [DSM-265]			8.15			
CC[C@@](O)(c1cc(F)c(F)c(F)c1)c1c2ccn(C3CC3)c(=O)c2nn1C	50 (≈ 18.9 µg/mL)	6	9.00	5.68		
CC(C)n1ccc2c(Cc3ccc(C(F)(F)F)nc3)n(C)nc2c1=O			5.18	< 4.00		4.85
Cn1nc2c(=O)n(C3CC3)ccc2c1[C@](C)(O)c1cnc(C(F)(F)F)c(Cl)c1	80 (≈ 33 µg/mL)	6.8	9.00	< 4.52		
Cn1nc2c(=O)n(C3CC3)ccc2c1Cc1ccc(C(F)(F)F)nc1			6.23	< 4.00		6.04
Cn1nc2c(=O)n(C3CC3)ccc2c1[C@](O)(c1ccc(F)c(Cl)c1)C(F)(F)F	20 (≈ 8.32 µg/mL)	< 3	9.00	5.07		
Cn1nc2c(=O)n(C3CC3)ccc2c1[C@](N)(c1cnc(C(F)(F)F)c(Cl)c1)C(F)(F)F	40 (≈ 18.6 µg/mL)	< 3	8.52	< 4.52		
Cn1nc2c(=O)n(C3CC3)ccc2c1[C@@](O)(c1cnc(C(F)(F)F)c(Cl)c1)C(F)(F)F			6.39			
Cn1nc2c(=O)n(C3CC3)cnc2c1[C@@](O)(c1cnc(C(F)(F)F)c(Cl)c1)C(F)(F)F			6.26			5.35
Cn1nc2c(=O)n(C3CC3)cnc2c1[C@](O)(c1cnc(C(F)(F)F)c(Cl)c1)C1CC1	80 (≈ 35.2 µg/mL)	< 3	8.40	< 4.52		

Now from value to compound, other results behind:

solubility kinetic at 0.5 h [1] [µM]	intrinsic clearance (CLint) [2] [µL/min/mg]	pEC50 [3]	pIC50 [4]	Kinetic_solubility [1] [µM]	SMILES	pIC50 [5]
40 (≈ 15.1 µg/mL)	74	7.46	4.24		CCn1cc(C2CC2)c2c(CN3CCC(F)(F)CC3(C)C)n(C)nc2c1=O	
160 (≈ 64.1 µg/mL)	3.2	7.96	< 4.00		CCn1cc(C)c2c([C@H](O)c3cnc(C(F)(F)F)c(Cl)c3)n(C)nc2c1=O	
50 (≈ 20.5 µg/mL)	28	7.46	4.22		CCn1cc(C2CC2)c2c(Cc3cnc(C(F)(F)F)c(Cl)c3)n(C)nc2c1=O	
80 (≈ 28 µg/mL)	26	7.03			CCn1cc(C2CC2)c2c(CN3CCCC(F)(F)C3)n(C)nc2c1=O	
70 (≈ 26.8 µg/mL)	10	7.70	4.80		Cn1nc2c(=O)n(C3CC3)cc(Cl)c2c1Cc1ccc(C(F)(F)F)nc1	
160 (≈ 62.8 µg/mL)	15	8.10	< 4.00		CCn1cc(C2CC2)c2c([C@H](O)c3ccc(C(F)(F)F)nc3)n(C)nc2c1=O	
		4.85			CCCn1ccc2c(Cc3ccc(C(F)(F)F)nc3)n(C)nc2c1=O	
50 (≈ 19.5 µg/mL)	24	8.40	4.17		CCn1cc(C2CC2)c2c(Cc3cnc(C(F)(F)F)c(C)c3)n(C)nc2c1=O	
80 (≈ 32.1 µg/mL)	25	9.00	< 4.00		CCn1ccc2c([C@](C)(O)c3cnc(C(F)(F)F)c(Cl)c3)n(C)nc2c1=O	
80 (≈ 34.1 µg/mL)	6	8.30	< 4.00		CCn1cc(C2CC2)c2c([C@H](O)c3cnc(C(F)(F)F)c(Cl)c3)n(C)nc2c1=O	
50 (≈ 17.5 µg/mL)	20	6.52	< 4.00		CCn1cc(C2CC2)c2c(CN3CCC(F)(F)CC3)n(C)nc2c1=O	
40 (≈ 15.7 µg/mL)	< 3	8.52	5.30		CC[C@@](O)(c1ccc(C(F)(F)F)nc1)c1c2ccn(C3CC3)c(=O)c2nn1C	
	18	7.74	< 4.52	> 100	CCn1cc(C2CC2)c2c(CN3CCC(C)(F)CC3)n(C)nc2c1=O	
	3.7	9.00		> 100	CC[C@@](O)(c1cnc(C(F)(F)F)c(Cl)c1)c1c2ncn(C3CC3)c(=O)c2nn1C	
80 (≈ 31.4 µg/mL)	< 3	8.15	< 4.00		CCn1ccc2c([C@](O)(c3ccc(C(F)(F)F)nc3)C3CC3)n(C)nc2c1=O	
		5.68			CCn1cc(C2CC2)c2c([C@@H](O)c3ccc(C(F)(F)F)nc3)n(C)nc2c1=O	
